Experiment [1] concerns the target Growth hormone secretagogue receptor type 1 (Homo sapiens, UniProt Q92847).
In a further experiment the target is D(1A) dopamine receptor (Homo sapiens, UniProt P21728). Type of experiment: functional, cell-based.
For experiment [2], the target named is T1, Muscarinic acetylcholine receptor M2 (Homo sapiens, UniProt P08172).
T1 sequence (P08172 whole entry): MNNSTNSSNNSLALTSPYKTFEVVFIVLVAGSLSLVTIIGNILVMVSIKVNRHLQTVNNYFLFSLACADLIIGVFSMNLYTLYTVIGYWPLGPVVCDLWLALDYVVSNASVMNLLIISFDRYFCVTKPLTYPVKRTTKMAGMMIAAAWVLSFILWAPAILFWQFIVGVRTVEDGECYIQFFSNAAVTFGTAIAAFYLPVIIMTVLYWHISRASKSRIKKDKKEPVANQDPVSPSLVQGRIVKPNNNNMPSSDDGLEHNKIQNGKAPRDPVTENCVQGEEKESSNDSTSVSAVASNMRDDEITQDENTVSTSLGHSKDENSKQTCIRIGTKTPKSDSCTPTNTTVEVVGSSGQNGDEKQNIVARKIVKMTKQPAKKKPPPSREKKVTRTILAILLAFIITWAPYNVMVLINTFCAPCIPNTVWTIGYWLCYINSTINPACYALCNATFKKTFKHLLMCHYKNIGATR
Type of experiment: functional, cell-based.

For the next experiment, the target named is Motilin receptor (Homo sapiens, UniProt O43193).
Experiment [3] concerns the target T2, 5-hydroxytryptamine receptor 1A (Homo sapiens, UniProt P08908).
T2 sequence (P08908 whole entry): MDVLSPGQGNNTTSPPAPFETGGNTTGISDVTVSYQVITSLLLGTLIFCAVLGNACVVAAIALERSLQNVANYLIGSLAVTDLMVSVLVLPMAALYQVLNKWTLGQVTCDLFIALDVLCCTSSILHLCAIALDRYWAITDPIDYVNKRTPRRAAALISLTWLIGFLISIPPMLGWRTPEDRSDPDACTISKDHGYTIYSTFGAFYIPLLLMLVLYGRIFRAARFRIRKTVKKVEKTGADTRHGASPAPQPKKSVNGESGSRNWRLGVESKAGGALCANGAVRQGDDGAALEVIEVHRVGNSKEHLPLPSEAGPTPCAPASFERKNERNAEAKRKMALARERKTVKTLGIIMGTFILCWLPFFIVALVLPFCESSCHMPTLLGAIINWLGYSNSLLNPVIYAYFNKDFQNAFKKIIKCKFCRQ
Type of experiment: functional, cell-based.

Experiment [4] addresses T3, Cholecystokinin receptor type A (Homo sapiens, UniProt P32238).
T3 sequence (P32238 whole entry): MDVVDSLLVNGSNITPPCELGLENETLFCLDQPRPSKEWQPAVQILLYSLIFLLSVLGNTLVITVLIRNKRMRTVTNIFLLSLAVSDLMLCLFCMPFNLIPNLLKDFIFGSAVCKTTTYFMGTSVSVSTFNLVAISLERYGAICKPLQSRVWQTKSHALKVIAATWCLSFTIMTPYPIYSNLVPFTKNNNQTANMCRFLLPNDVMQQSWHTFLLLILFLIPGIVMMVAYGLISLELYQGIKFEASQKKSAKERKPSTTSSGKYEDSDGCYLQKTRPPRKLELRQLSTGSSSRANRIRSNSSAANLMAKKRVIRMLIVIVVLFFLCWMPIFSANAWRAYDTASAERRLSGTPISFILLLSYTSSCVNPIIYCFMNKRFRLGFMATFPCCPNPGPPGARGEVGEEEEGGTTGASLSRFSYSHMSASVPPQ

In experiment [5] the target is T4, Equilibrative nucleoside transporter 1 (Homo sapiens, UniProt Q99808).
T4 sequence (Q99808 whole entry): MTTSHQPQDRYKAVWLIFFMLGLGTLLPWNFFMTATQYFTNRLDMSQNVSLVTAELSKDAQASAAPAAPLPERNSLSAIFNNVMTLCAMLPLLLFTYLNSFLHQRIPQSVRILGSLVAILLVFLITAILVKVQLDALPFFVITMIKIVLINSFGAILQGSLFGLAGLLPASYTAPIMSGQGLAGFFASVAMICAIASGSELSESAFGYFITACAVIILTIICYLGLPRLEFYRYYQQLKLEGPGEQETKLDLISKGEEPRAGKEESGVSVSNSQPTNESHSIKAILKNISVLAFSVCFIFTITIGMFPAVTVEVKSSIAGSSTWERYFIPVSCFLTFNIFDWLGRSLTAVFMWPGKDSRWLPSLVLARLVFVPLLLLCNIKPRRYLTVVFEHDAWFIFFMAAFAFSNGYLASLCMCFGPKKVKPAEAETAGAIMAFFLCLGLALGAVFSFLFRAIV

For experiment [6], the target named is Delta-type opioid receptor (Homo sapiens, UniProt P41143).
In experiment [7] the target is cGMP-inhibited 3',5'-cyclic phosphodiesterase 3A (Homo sapiens, UniProt Q14432). Type of experiment: functional.
For experiment [8], the target named is Sodium-dependent dopamine transporter (Homo sapiens, UniProt Q01959).
The target of the next experiment is Bile salt export pump (Homo sapiens, UniProt O95342). The experiment is classed as functional.
Experiment [9] concerns the target T5, Alpha-2A adrenergic receptor (Homo sapiens, UniProt P08913).
T5 sequence (P08913 whole entry): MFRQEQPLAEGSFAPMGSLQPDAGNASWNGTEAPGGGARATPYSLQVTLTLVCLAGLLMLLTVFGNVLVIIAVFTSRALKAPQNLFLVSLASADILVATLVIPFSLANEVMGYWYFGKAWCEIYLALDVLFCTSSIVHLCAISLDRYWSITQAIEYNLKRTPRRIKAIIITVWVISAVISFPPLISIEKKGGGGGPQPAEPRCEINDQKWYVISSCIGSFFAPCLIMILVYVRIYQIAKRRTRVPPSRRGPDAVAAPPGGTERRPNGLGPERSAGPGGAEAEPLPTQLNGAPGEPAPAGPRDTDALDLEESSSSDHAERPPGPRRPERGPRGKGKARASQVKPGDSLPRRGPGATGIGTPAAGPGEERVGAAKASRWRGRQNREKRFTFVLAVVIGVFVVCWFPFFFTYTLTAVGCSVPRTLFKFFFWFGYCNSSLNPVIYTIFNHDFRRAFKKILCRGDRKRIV
Type of experiment: functional, cell-based.
Further: assay procedure not described here.

Sequence of Delta-type opioid receptor (P41143 whole entry): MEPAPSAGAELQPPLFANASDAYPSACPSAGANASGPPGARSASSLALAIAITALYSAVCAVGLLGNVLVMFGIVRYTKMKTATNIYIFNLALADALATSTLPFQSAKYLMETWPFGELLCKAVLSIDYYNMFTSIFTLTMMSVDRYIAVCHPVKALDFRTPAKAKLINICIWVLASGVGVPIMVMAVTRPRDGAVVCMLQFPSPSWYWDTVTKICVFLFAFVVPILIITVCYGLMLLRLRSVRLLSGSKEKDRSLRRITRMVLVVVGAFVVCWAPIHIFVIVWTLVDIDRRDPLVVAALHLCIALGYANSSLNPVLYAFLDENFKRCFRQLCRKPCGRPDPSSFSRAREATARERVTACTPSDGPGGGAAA
Sequence of Bile salt export pump (O95342 whole entry): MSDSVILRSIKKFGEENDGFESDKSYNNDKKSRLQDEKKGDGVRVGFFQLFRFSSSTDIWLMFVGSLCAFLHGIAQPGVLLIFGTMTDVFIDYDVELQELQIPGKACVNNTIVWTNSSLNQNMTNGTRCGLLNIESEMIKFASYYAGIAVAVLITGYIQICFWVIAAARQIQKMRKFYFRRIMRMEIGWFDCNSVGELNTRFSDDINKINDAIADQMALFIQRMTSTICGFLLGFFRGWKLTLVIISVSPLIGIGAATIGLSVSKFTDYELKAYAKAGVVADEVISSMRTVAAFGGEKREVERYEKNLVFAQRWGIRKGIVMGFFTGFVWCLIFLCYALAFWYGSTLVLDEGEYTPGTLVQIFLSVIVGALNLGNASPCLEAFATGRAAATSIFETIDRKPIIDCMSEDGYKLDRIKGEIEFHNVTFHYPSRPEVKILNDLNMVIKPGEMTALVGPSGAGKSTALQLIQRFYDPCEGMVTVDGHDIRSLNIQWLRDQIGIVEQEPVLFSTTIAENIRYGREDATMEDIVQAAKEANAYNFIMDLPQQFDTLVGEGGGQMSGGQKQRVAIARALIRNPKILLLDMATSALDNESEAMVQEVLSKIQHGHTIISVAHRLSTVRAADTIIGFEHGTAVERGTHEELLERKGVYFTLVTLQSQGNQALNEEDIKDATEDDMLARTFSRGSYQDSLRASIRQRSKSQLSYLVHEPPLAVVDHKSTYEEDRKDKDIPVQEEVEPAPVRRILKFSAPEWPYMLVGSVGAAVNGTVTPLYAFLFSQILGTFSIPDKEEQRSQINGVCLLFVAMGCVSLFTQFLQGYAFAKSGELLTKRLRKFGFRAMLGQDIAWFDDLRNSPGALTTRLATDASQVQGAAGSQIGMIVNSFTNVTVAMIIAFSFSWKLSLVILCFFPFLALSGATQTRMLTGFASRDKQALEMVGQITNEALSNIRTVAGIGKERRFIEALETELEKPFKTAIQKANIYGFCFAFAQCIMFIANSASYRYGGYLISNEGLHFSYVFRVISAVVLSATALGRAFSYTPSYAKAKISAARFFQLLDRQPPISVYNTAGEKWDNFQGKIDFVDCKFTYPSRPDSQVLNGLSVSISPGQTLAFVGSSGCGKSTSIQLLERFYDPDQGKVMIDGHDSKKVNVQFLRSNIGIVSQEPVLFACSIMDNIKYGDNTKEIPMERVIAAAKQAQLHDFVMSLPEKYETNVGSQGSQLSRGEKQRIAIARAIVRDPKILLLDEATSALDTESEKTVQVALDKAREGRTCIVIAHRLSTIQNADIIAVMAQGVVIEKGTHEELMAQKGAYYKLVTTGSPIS
Sequence of D(1A) dopamine receptor (P21728 whole entry): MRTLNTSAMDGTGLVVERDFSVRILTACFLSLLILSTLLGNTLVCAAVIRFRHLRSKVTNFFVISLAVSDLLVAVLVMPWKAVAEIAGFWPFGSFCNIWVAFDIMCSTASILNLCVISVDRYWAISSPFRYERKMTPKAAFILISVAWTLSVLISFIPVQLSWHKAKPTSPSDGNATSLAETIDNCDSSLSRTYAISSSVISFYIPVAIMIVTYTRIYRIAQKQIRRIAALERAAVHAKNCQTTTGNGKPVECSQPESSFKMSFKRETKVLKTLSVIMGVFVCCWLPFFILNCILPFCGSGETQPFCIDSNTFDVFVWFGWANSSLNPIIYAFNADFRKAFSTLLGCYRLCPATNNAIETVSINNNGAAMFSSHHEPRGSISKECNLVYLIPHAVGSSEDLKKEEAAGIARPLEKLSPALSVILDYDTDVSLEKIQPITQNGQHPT
Sequence of Growth hormone secretagogue receptor type 1 (Q92847 whole entry): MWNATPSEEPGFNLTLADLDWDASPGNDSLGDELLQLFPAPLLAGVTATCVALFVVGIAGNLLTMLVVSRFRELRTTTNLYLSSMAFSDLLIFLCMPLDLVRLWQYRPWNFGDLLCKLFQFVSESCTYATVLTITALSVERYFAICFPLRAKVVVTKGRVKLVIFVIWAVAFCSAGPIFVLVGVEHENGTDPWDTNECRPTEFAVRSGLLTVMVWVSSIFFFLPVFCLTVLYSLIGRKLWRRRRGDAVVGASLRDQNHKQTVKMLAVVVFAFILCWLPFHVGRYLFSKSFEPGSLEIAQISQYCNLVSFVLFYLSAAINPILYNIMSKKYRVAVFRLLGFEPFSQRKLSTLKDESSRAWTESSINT
Sequence of Motilin receptor (O43193 whole entry): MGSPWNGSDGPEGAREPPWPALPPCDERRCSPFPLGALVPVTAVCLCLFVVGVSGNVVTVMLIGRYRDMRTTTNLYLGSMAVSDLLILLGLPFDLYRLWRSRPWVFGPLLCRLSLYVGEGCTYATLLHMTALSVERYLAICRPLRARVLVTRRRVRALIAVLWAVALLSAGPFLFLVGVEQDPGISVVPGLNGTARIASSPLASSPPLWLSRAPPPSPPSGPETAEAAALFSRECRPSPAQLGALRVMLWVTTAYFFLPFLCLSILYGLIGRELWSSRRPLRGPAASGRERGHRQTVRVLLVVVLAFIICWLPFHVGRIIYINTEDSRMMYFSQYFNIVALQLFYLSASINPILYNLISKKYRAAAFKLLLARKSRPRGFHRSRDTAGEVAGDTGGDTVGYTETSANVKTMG
Sequence of Sodium-dependent dopamine transporter (Q01959 whole entry): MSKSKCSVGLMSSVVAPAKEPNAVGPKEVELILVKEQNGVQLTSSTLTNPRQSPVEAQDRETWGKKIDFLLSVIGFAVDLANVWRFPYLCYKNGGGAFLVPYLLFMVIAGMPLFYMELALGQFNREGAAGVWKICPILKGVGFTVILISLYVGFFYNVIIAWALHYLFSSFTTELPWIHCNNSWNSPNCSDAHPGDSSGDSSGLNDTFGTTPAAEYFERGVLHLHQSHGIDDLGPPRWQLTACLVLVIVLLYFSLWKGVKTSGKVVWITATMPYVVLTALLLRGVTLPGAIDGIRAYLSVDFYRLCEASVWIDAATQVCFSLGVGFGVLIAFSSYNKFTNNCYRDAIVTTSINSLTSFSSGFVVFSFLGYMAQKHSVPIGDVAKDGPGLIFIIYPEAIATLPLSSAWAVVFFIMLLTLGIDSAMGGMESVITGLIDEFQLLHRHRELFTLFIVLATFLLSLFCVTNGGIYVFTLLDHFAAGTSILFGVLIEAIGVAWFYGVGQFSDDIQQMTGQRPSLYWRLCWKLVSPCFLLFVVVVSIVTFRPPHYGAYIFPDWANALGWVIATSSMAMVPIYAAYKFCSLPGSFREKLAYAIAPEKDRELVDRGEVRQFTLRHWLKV
Sequence of cGMP-inhibited 3',5'-cyclic phosphodiesterase 3A (Q14432 whole entry): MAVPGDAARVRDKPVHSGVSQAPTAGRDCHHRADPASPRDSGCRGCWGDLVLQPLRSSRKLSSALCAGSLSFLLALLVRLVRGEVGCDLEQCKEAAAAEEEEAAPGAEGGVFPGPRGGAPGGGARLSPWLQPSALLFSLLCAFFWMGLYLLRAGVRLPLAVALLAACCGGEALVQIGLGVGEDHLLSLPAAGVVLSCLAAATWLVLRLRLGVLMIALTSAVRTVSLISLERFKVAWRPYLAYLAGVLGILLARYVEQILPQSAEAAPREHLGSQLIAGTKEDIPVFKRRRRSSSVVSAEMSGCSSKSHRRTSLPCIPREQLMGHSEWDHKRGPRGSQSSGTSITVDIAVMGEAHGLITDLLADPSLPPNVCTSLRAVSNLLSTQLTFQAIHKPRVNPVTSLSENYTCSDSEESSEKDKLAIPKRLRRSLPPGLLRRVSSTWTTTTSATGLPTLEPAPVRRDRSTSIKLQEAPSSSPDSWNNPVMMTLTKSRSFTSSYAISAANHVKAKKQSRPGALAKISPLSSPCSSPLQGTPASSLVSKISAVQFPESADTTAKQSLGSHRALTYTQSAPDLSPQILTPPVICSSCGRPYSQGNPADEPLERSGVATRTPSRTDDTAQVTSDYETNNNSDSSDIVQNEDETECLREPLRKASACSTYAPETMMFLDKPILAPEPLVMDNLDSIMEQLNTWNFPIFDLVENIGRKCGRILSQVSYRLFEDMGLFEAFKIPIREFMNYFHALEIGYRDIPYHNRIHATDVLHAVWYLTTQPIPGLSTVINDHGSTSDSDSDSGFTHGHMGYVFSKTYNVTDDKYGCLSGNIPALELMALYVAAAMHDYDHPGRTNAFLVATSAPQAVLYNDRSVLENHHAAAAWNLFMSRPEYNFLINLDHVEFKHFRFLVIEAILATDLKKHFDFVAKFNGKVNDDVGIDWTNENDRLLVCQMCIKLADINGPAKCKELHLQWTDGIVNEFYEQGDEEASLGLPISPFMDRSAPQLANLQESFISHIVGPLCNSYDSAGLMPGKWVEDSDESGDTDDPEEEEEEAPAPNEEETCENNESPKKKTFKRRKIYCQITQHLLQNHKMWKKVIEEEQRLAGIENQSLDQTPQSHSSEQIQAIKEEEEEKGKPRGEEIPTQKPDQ

As for `Oc1ncnc2[nH]ncc12` [ALLOPURINOL], the AC50 in experiment [1] was above 30 µM; at D(1A) dopamine receptor, above 10 µM; in experiment [2] it was above 10 µM; on Motilin receptor it was above 10 µM; in experiment [3], above 10 µM; in experiment [4], above 30 µM. The AC50 in experiment [5] was above 30 µM; in [6], above 30 µM; in [7], above 30 µM; in experiment [8], above 10 µM; at Bile salt export pump it was above 300 µM; in [9], above 10 µM.
In the case of `COC(=O)N[C@H](C(=O)N[C@@H](Cc1ccccc1)[C@@H](O)CN(Cc1ccc(-c2ccccn2)cc1)NC(=O)[C@@H](NC(=O)OC)C(C)(C)C)C(C)(C)C` [ATAZANAVIR], the AC50 in experiment [1] was 10.6 µM; at D(1A) dopamine receptor, above 10 µM; in [2], above 10 µM; at Motilin receptor, 6.4 µM; in experiment [3], above 10 µM; in experiment [4], 17.6 µM. Also, the AC50 in [5] was above 30 µM; in experiment [6] it was above 30 µM; in experiment [7], above 30 µM; in [8], above 30 µM; on Bile salt export pump, 2 µM; in experiment [9] it was above 10 µM.
Take `CC(C)NCC(O)COc1ccc(COCCOC(C)C)cc1` (stereo not given) [BISOPROLOL]: the AC50 in experiment [1] was above 30 µM; at D(1A) dopamine receptor, above 10 µM; in experiment [2] it was above 10 µM; at Motilin receptor, above 10 µM; in experiment [3] it was above 10 µM; in experiment [4] it was above 30 µM. Further, the AC50 is above 30 µM in experiment [5]; above 10 µM in experiment [6]; above 30 µM in experiment [7]; above 10 µM in [8]; above 300 µM at Bile salt export pump; above 10 µM in experiment [9].
Turning to `N[C@@H](C(=O)N[C@@H]1C(=O)N2C(C(=O)O)=C(Cl)CS[C@H]12)c1ccccc1` [CEFACLOR ANHYDROUS], the AC50 (in experiment [1]; on D(1A) dopamine receptor; in experiment [2]; at Motilin receptor; in [3]; in [4]) was above 30 µM in each case. Besides, the AC50 in experiment [5] is above 30 µM; in experiment [6], above 30 µM; in experiment [7], above 30 µM; in experiment [8], above 30 µM; at Bile salt export pump, above 300 µM; in experiment [9], above 30 µM.
Take `CCC[C@@H]1C[C@@H](C(=O)N[C@@H]([C@H]2O[C@H](SC)[C@H](O)[C@@H](O)[C@H]2O)[C@H](C)Cl)N(C)C1` [CLINDAMYCIN]: the AC50 in experiment [1] is above 30 µM; at D(1A) dopamine receptor, above 10 µM; in experiment [2], above 10 µM; on Motilin receptor, above 10 µM; in [3] it was above 10 µM; in experiment [4] it was above 30 µM. Further, the AC50 in experiment [5] was above 30 µM; in experiment [6], above 30 µM; in experiment [7], above 30 µM; in [8], above 10 µM; at Bile salt export pump, above 300 µM; in experiment [9], above 10 µM.
For `O=C(O)c1cc(-c2ccc(F)cc2F)ccc1O` [DIFLUNISAL], the AC50 in [1] is above 10 µM; on D(1A) dopamine receptor, above 30 µM; in experiment [2], above 10 µM; at Motilin receptor, above 10 µM; in experiment [3] it was above 10 µM; in experiment [4] it was above 10 µM. Also, the AC50 was above 10 µM in experiment [5]; above 30 µM in [6]; above 30 µM in experiment [7]; above 10 µM in experiment [8]; 160 µM on Bile salt export pump; above 10 µM in experiment [9].
Regarding `CN(CCOc1ccc(NS(C)(=O)=O)cc1)CCc1ccc(NS(C)(=O)=O)cc1` [DOFETILIDE], the AC50 in experiment [1] is above 30 µM; at D(1A) dopamine receptor it was above 10 µM; in experiment [2], above 30 µM; at Motilin receptor it was above 10 µM; in experiment [3], above 30 µM; in experiment [4], above 30 µM. For the same compound, the AC50 is above 30 µM in experiment [5]; above 30 µM in [6]; above 30 µM in experiment [7]; above 10 µM in experiment [8]; above 300 µM on Bile salt export pump; above 30 µM in experiment [9].
`COC(=O)[C@@H]1CC2=CC(=O)CC[C@]2(C)[C@@]23O[C@@H]2C[C@@]2(C)[C@@H](CC[C@@]24CCC(=O)O4)[C@H]13` [EPLERENONE]: the AC50 (in [1]; on D(1A) dopamine receptor; in [2]; at Motilin receptor; in experiment [3]; in experiment [4]) was above 30 µM in each case. The AC50 was above 30 µM in experiment [5]; above 30 µM in [6]; above 30 µM in [7]; above 30 µM in experiment [8]; above 300 µM at Bile salt export pump; above 30 µM in [9].
`C#C[C@]1(O)CC[C@H]2[C@@H]3CCc4cc(O)ccc4[C@H]3CC[C@@]21C` [ETHINYL ESTRADIOL]: the concentration at half-maximal activity (AC50) in experiment [1] is above 30 µM; at D(1A) dopamine receptor, above 10 µM; in experiment [2] it was above 10 µM; on Motilin receptor it was above 10 µM; in experiment [3], 5.7 µM; in experiment [4], above 30 µM. For the same compound, the AC50 in experiment [5] was above 30 µM; in experiment [6], above 30 µM; in experiment [7], 16 µM; in experiment [8], 2.81 µM; at Bile salt export pump, 38 µM; in [9], above 10 µM.
For the compound `NC(N)=Nc1nc(CSCCC(N)=NS(N)(=O)=O)cs1` [FAMOTIDINE], the AC50 in experiment [1] was above 30 µM; at D(1A) dopamine receptor, above 10 µM; in experiment [2], above 10 µM; on Motilin receptor, above 10 µM; in experiment [3], above 10 µM; in [4], above 30 µM. For the same compound, the AC50 is above 30 µM in [5]; above 10 µM in [6]; above 10 µM in [7]; above 10 µM in [8]; above 300 µM on Bile salt export pump; above 10 µM in experiment [9].

Broadly, the AC50 is the concentration at which the activity in the assay is half-maximal.
